Results reported in US6582719B2, “Combinations of antiseptic and antibiotic agents that inhibit the development of resistant microorganisms” (priority 2001, dated 2003).
Read-outs that look alike come from different tables or passages of the source.

What was measured:
Pseudomonas aeruginosa = experiment: Zones of inhibition of treated catheter segments on seeded trypticase soy agar plates, 24 hours
S. epidermidis [1] = assay type: cell-based, Staphylococcus epidermidis
S. epidermidis [2] = experiment: Minimum inhibitory concentration in Trypticase Soy Broth, synergy (fractional inhibitory concentration); assay type: cell-based, Staphylococcus epidermidis
[3] = tetrahydrofuran/methanol solvent systems
[4] = catheter treated with 2% bismuth salt
[5] = catheter treated with 2% bismuth salt + 3% minocycline
[6] = 10-20 passages, inoculum 10^4 cfu/ml
[7] = 10 transfers, inoculum 10^6 cfu/ml

O=[N+]([O-])[O-].O=[N+]([O-])[O-].O=[N+]([O-])[O-].[Bi+3] [Bismuth Nitrate, bismuth nitrate]
Zones of Inhibition Against Pseudomonas aeruginosa (mm) 2% Bismuth Salt (Pseudomonas aeruginosa; [4]): 0 mm | Zones of Inhibition Against Pseudomonas aeruginosa (mm) 2% Bismuth Salt + 3% Minocycline (Pseudomonas aeruginosa; [5]): 15 mm

CC(=O)[O-].CC(=O)[O-].CC(=O)[O-].[Bi+3] [Bismuth acetate, bismuth acetate]
Zones of Inhibition Against Pseudomonas aeruginosa (mm) 2% Bismuth Salt (Pseudomonas aeruginosa): 0 mm | Zones of Inhibition Against Pseudomonas aeruginosa (mm) 2% Bismuth Salt + 3% Minocycline (Pseudomonas aeruginosa): 17 mm

O=C([O-])c1ccccc1.O=C([O-])c1ccccc1.O=C([O-])c1ccccc1.[Bi+3] [Bismuth benzoate, bismuth benzoate]
Zones of Inhibition Against Pseudomonas aeruginosa (mm) 2% Bismuth Salt (Pseudomonas aeruginosa): 0 mm | Zones of Inhibition Against Pseudomonas aeruginosa (mm) 2% Bismuth Salt + 3% Minocycline (Pseudomonas aeruginosa): 18 mm

[Bi+3].[O-]B([O-])[O-] [Bismuth borate, bismuth borate]
Zones of Inhibition Against Pseudomonas aeruginosa (mm) 2% Bismuth Salt (Pseudomonas aeruginosa): 0 mm | Zones of Inhibition Against Pseudomonas aeruginosa (mm) 2% Bismuth Salt + 3% Minocycline (Pseudomonas aeruginosa): 13 mm

O=C([O-])CC(O)(CC(=O)[O-])C(=O)[O-].[Bi+3] [Bismuth citrate, bismuth citrate]
Zones of Inhibition Against Pseudomonas aeruginosa (mm) 2% Bismuth Salt (Pseudomonas aeruginosa): 0 mm | Zones of Inhibition Against Pseudomonas aeruginosa (mm) 2% Bismuth Salt + 3% Minocycline (Pseudomonas aeruginosa): 17 mm

CC(=O)O.CC(=O)O.NC(=N\CCCCCC/N=C(N)/N=C(\N)Nc1ccc(Cl)cc1)/N=C(\N)Nc1ccc(Cl)cc1 [Chlorhexidine (CHX), chlorhexidine diacetate]
INCREASE IN MIC (fold) (S. epidermidis [1]): 2 fold | MIC (μg/ml) AFTER PASSAGE (S. epidermidis [1]): 1.0 µg/mL | MIC (μg/ml) BEFORE PASSAGE (S. epidermidis [1]): 0.5 µg/mL | MIC (S. epidermidis [2]; inoculum of 10^4 cfu/ml): 0.5 µg/mL

CN(C)c1ccc(O)c2c1C[C@H]1C[C@H]3[C@H](N(C)C)C(O)=C(C(N)=O)C(=O)[C@@]3(O)C(O)=C1C2=O [Minocycline (M), minocycline]
INCREASE IN MIC (fold) (S. epidermidis [1]; [6]): 2 fold | INCREASE IN MIC (fold) (S. epidermidis [1]; [7]): 4 fold

CCn1cc(C(=O)O)c(=O)c2cc(F)c(N3CCNCC3)cc21 [Norfloxacin (Nf), norfloxacin]
INCREASE IN MIC (fold) (S. epidermidis [1]; [6]): 40 fold | upper limit incorporated (low solubility in tetrahydrofuran/methanol) [3]: about 0.5 percent (w/v)

CO[C@H]1/C=C/O[C@@]2(C)Oc3c(C)c(O)c4c(O)c(c(/C=N/N5CCN(C)CC5)c(O)c4c3C2=O)NC(=O)/C(C)=C\C=C\[C@H](C)[C@H](O)[C@@H](C)[C@@H](O)[C@@H](C)[C@H](OC(C)=O)[C@@H]1C [Rifampin (R), rifampin]
INCREASE IN MIC (fold) (S. epidermidis [1]; [6]): 25,000 fold

NC[C@H]1O[C@H](O[C@H]2[C@H](O)[C@@H](O[C@H]3O[C@H](CO)[C@@H](O)[C@H](N)[C@H]3O)[C@H](N)C[C@@H]2N)[C@H](N)C[C@@H]1O [Tobramycin (Tb), tobramycin]
INCREASE IN MIC (fold) (S. epidermidis [1]; [6]): 20 fold

Oc1cc(Cl)ccc1Oc1ccc(Cl)cc1Cl [Triclosan (T), triclosan]
INCREASE IN MIC (fold) (S. epidermidis [1]; [6]): 7 fold | INCREASE IN MIC (fold) (S. epidermidis [1]; [7]): 7 fold | MIC (S. epidermidis [2]; Staphylococcus epidermidis, 24 h): 0.35 µg/mL

bismuth mandelate
Zones of Inhibition Against Pseudomonas aeruginosa (mm) 2% Bismuth Salt (Pseudomonas aeruginosa): 0 mm | Zones of Inhibition Against Pseudomonas aeruginosa (mm) 2% Bismuth Salt + 3% Minocycline (Pseudomonas aeruginosa): 18.5 mm

bismuth palmitate
Zones of Inhibition Against Pseudomonas aeruginosa (mm) 2% Bismuth Salt (Pseudomonas aeruginosa): 0 mm | Zones of Inhibition Against Pseudomonas aeruginosa (mm) 2% Bismuth Salt + 3% Minocycline (Pseudomonas aeruginosa): 18.5 mm

bismuth salicylate
Zones of Inhibition Against Pseudomonas aeruginosa (mm) 2% Bismuth Salt (Pseudomonas aeruginosa): 0 mm | Zones of Inhibition Against Pseudomonas aeruginosa (mm) 2% Bismuth Salt + 3% Minocycline (Pseudomonas aeruginosa): 17 mm

bismuth sulfadiazine
Zones of Inhibition Against Pseudomonas aeruginosa (mm) 2% Bismuth Salt (Pseudomonas aeruginosa; [4]): 6.5 mm | Zones of Inhibition Against Pseudomonas aeruginosa (mm) 2% Bismuth Salt + 3% Minocycline (Pseudomonas aeruginosa; [5]): 15.5 mm

polyhexamethylenebiguanide [PHMB]
INCREASE IN MIC (fold) (S. epidermidis [1]): 1.0 fold | MIC (μg/ml) AFTER PASSAGE (S. epidermidis [1]): 0.31 µg/mL | MIC (μg/ml) BEFORE PASSAGE (S. epidermidis [1]): 0.31 µg/mL
